Data as given in patent US10857155B2, “Compounds targeting proteins, compositions, methods, and uses thereof” (BioTheryX, Inc., priority 2017, dated 2020).

Legend:
Type in all cases: cell-based
[1] = test system: IL-1β; experiment: IL-1 beta in LPS-induced PBMCs / CD14+ monocytes, Meso Scale assay; conditions: 0.1 μM
Procedure: (§1) FIG. 2 represents the activity against IL-1-beta in CD14 monocytes, plated in 96 well plates and pretreated with Compounds 1, 2, or 3, or pomalidomide, for 1 h and then induced with 100 ng/mL LPS for 18-24 h. Cytokines were measured according to MesoScale protocol. Negative control wells were treated with DMSO. Compound activity was measured as a percentage of LPS-induced activity.
(§2) Either frozen primary blood mononuclear cells (PBMCs) or frozen CD14+ mobilized peripheral blood monocytes were purchased from AllCells (PB003F, Normal Peripheral Blood MNC (Alameda, Calif.)). Cells were quick thawed, washed 1-time with RPMI-1640 (10% FBS/1% Pen-Strep) and plated in 96 well plates at 200,000 cells per well. Cells were pretreated with DMSO only, pomalidomide or the indicated compounds for 1 h and then induced with 100 ng/mL lipopolysaccharide (LPS) for 18-24 h. The supernatant was analyzed for IL-1 beta, IL-6, and TNF-alpha, using Meso Scale assay according to manufacturer's protocol. The negative control wells were treated with DMSO.
(§3) Compound activity is measured as fold difference from the DMSO control. Compounds 1, 2, and 3 each reduced expression of IL-1-b in LPS-stimulated PBMCs by over 80% at 1 uM, relative to a just under 80% reduction with pomalidomide at 10 μM (FIG. 2).

[2] = test system: IL-6; experiment: IL-6 in LPS-induced PBMCs / CD14+ monocytes, Meso Scale assay; conditions: 0.1 μM
Procedure: as §1, with “FIG. 3” for “FIG. 2”, “against IL-6” for “against IL-1-beta”, “in CD14,” for “in CD14”, “DMSO. Cells were treated with compound (at the indicated concentrations) or 10 μM pomalidomide.” for “DMSO.”
as §2, §3

[3] = test system: TNF-α; experiment: TNF-alpha in LPS-induced PBMCs / CD14+ monocytes, Meso Scale assay; conditions: 0.1 μM
Procedure: as §1, with “FIG. 4” for “FIG. 2”, “against TNF-alpha” for “against IL-1-beta”, “in CD14,” for “in CD14”, “protocol. The negative” for “protocol. Negative”, “DMSO. Cells were treated with compound (at the indicated concentrations) or 10 μM pomalidomide.” for “DMSO.”
as §2, §3

[4] = test system: IL-2; experiment: IL-2 in PBMCs on anti-human CD3 (OKT3) coated plates, Mesoscale analysis; conditions: PBMC, 24 h, 0.1 μM, relative to DMSO control, read-out: Fold Change IL-2
Procedure: For the IL-2 analysis, 96 well plates were precoated with 1 μg/mL anti-human CD3 antibody (OKT3, eBioscience Inc., San Diego, Calif.). After washing with PBS, compounds were added (50 μL/well) followed by PBMCs diluted at 3-4 million cells/mL (150 μL/well). Plates were incubated for 24 h and the supernatants collected for Mesoscale IL-2 analysis.
as §3

[5] = test system: Molm-13 cells; experiment: Cell viability assay (CellTiter-Glo), Molm-13 cells; conditions: Homo sapiens, 72 h, 3 days; for viability at 10 µM: MOLM-13, 10 μM; for viability at 1 µM: MOLM-13, 1 μM
Procedure: FIG. 5 represents antiproliferative activity in Molm-13 cells. The cells were incubated with Compound 1, 2, or 3 (at the indicated concentration), DMSO, or pomalidomide. Compound activity was measured based on the signal from remaining viable cells.
(§4) Molm-13 cells were cultivated in RPMI-1640 (10% FBS/1% pen-strep) and were plated in white walled 96-well plates at 20,000 cells/well. H1048 cells were cultured in DMEM:F12 media supplemented with 5% fetal bovine serum, insulin, transferrin, sodium selenite, hydrocortisone, estradiol, penicillin and streptomycin, and were plated in white walled 96-well plates at 20,000 cells/well.
(§5) Cells were treated with compound at the indicated concentration or DMSO (control) and the cultures were incubated for 3 days at 37° C. and 5% CO2. Following the incubation period, 100 μL of CellTiterGlow (CTG) reagent (CellTiter-Glo® Luminescent Cell Viability Assay, Promega (Madison, Wis.)) was added to each well. Following a 10 min incubation with shaking, luminescence was measured using a Victor Wallac Luminometer.

[6] = test system: H1048 cells; experiment: Cell viability assay (CellTiter-Glo), H1048 cells; conditions: Homo sapiens, NCI-H1048, 72 h, 3 days; for viability at 1 µM: H1048, 1 μM; for viability at 10 µM: H1048, 10 μM
Procedure: as §4, §5

[7] = target: T1, GSPT1 (Homo sapiens, UniProt P15170); experiment: Western blot analysis of GSPT1 protein levels in Jurkat cells; conditions: DMSO = 100.00; for GSPT1 protein level (% of DMSO control) at 0.1 µM: 100 nM compound; for GSPT1 protein level (% of DMSO control) at 1 µM: 1 uM compound
T1 construct: Whole cell extract was prepared with RIPA buffer according to manufacturer's protocol; endogenous in cells; host or cells: Jurkat cells
T1 sequence (P15170 whole entry): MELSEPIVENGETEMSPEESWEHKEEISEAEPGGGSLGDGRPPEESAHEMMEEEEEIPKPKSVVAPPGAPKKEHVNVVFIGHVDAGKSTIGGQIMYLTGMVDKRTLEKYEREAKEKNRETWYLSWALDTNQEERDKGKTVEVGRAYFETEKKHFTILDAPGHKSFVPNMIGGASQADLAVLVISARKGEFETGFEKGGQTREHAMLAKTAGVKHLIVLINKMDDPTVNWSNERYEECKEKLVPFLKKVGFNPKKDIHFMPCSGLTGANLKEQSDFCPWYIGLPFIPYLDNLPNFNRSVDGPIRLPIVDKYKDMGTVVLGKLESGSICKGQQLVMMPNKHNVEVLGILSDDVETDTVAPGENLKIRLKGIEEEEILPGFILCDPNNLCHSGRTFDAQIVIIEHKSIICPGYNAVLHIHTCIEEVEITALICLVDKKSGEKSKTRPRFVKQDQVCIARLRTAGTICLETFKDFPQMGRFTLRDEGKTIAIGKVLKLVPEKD
Procedure: FIG. 1 represents the activity against CK1α, ikaros, and GPST1 in Jurkat cells, plated in 96 well plates. Cells were pretreated with compounds for 4 h and then lysed and protein levels measure via Western blots. The negative control wells were treated with DMSO. Cells were treated with the indicated compound at the indicated concentration. Compound activity is measured as a decrease in GSPT1 protein levels.
Western Blot Protocol: Cell lines were grown in RPMI 1640 supplemented with streptomycin, penicillin and 10% fetal bovine serum.
Jurkat cells were cultured at approximately 10^6 cells per mL, DMSO or the indicated compound was added to the cells and allowed to incubate for 6-8 h. Whole cell extract was prepared with RIPA buffer according to manufacturer's protocol (Pierce (Dallas, Tex.)). Briefly, ˜2×10^6 cells were washed once in PBS, the cell pellet was resuspended in RIPA buffer and allowed to incubate for 15 min on ice. Cell debris was removed by centrifugation and the cleared whole cell lysate was transferred to a new tube for further analysis.
For western blot analysis, whole cell extracts were separated on 4-12% SDS-polyacrylamide gels, transferred to nitrocellulose and probed with the indicated primary antibodies. Membranes were subsequently washed and probed with the appropriate horseradish peroxidase (HRP)-conjugated secondary antibody. Membranes were subsequently washed and probed with the appropriate IRDye secondary antibodies (LI-COR). The signal was detected using the Odyssey Imaging System (LI-COR).

For `Cc1ccc(N(C)C(=O)NCc2ccc3c(c2)CN([C@H]2CCCC(=O)NC2=O)C3=O)cc1Cl` [Compound 21, (S)-1-(3-chloro-4-methylphenyl)-3-((2-(2,7-dioxoazepan-3-yl)-1-oxoisoindolin-5-yl)methyl)-1-methylurea], the inhibition at 0.1 µM [1] was 27%, the inhibition at 0.1 µM [2] was 18% and the inhibition at 0.1 µM [3] was 20%. The fold induction at 0.1 µM [4] was 0.9, the viability at 10 µM [5] was 25% and the viability at 1 µM [6] was 95.5%. The viability at 10 µM [6] was 45.3%, the GSPT1 protein level (% of DMSO control) at 0.1 µM [7] was 126% and the GSPT1 protein level (% of DMSO control) at 1 µM [7] was 134%.

`Cc1ccc(NC(=O)NCc2cc3c(cc2F)C(=O)N([C@H]2CCCC(=O)NC2=O)C3)cc1Cl` [Compound 22, (S)-1-(3-chloro-4-methylphenyl)-3-((2-(2,7-dioxoazepan-3-yl)-6-fluoro-1-oxoisoindolin-5-yl)methyl)urea] showed an inhibition at 0.1 µM [1] of 82%, an inhibition at 0.1 µM [2] of 58% and an inhibition at 0.1 µM [3] of 74%. For the same compound, the fold induction at 0.1 µM [4] was 2, the viability at 1 µM [5] was 2.45% and the viability at 1 µM [6] was 11.5%. The viability at 10 µM [6] was 4.04%, the GSPT1 protein level (% of DMSO control) at 0.1 µM [7] was 22.1% and the GSPT1 protein level (% of DMSO control) at 1 µM [7] was 5.56%.

In the case of `Cc1ccc(NC(=O)NCCc2cccc3c2CN([C@H]2CCCC(=O)NC2=O)C3=O)cc1Cl` [Compound 23, (S)-1-(3-chloro-4-methylphenyl)-3-(2-(2-(2,7-dioxoazepan-3-yl)-1-oxoisoindolin-4-yl)ethyl)urea], the inhibition at 0.1 µM [1] is reported as 21%, the inhibition at 0.1 µM [2] is reported as 0% and the inhibition at 0.1 µM [3] is reported as 25%. For the same compound, the fold induction at 0.1 µM [4] was 0.8, the viability at 10 µM [5] was 96% and the viability at 10 µM [6] was 25.1%. The GSPT1 protein level (% of DMSO control) at 0.1 µM [7] was 147% and the GSPT1 protein level (% of DMSO control) at 1 µM [7] was 105%.

For `Cc1ccc(NC(=O)NCCc2ccc3c(c2)CN([C@H]2CCCC(=O)NC2=O)C3=O)cc1Cl` [Compound 24, (S)-1-(3-chloro-4-methylphenyl)-3-(2-(2-(2,7-dioxoazepan-3-yl)-1-oxoisoindolin-5-yl)ethyl)urea], the inhibition at 0.1 µM [1] was 26%, the inhibition at 0.1 µM [2] was 0% and the inhibition at 0.1 µM [3] was 42%. It also gave a fold induction at 0.1 µM [4] of 0.9, a viability at 10 µM [5] of 98% and a viability at 10 µM [6] of 2.81%. For the same compound, the GSPT1 protein level (% of DMSO control) at 0.1 µM [7] was 122% and the GSPT1 protein level (% of DMSO control) at 1 µM [7] was 126%.

Work on `O=C1CCC[C@H](N2Cc3cc(CNC(=O)C(F)(F)c4ccc(F)cc4)ccc3C2=O)C(=O)N1` [Compound 25, (S)—N-((2-(2,7-dioxoazepan-3-yl)-1-oxoisoindolin-5-yl)methyl)-2,2-difluoro-2-(4-fluorophenyl)acetamide] yielded an inhibition at 0.1 µM [1] of 38%, an inhibition at 0.1 µM [2] of 12% and an inhibition at 0.1 µM [3] of 36%. The fold induction at 0.1 µM [4] was 1.4, the viability at 10 µM [5] was 96% and the viability at 1 µM [6] was 88.1%. For the same compound, the viability at 10 µM [6] was 26.6%, the GSPT1 protein level (% of DMSO control) at 0.1 µM [7] was 98.1% and the GSPT1 protein level (% of DMSO control) at 1 µM [7] was 63.5%.

`Cc1ccc(NC(=S)NCc2ccc3c(c2)CN([C@H]2CCCC(=O)NC2=O)C3=O)cc1Cl` [Compound 26, (S)-1-(3-chloro-4-methylphenyl)-3-((2-(2,7-dioxoazepan-3-yl)-1-oxoisoindolin-5-yl)methyl)thiourea] gave an inhibition at 0.1 µM [1] of 1%, an inhibition at 0.1 µM [2] of 0% and an inhibition at 0.1 µM [3] of 3%. The fold induction at 0.1 µM [4] was 0.8, the viability at 1 µM [5] was 79% and the viability at 1 µM [6] was 46.4%. For the same compound, the viability at 10 µM [6] was 4.54%, the GSPT1 protein level (% of DMSO control) at 0.1 µM [7] was 61.6% and the GSPT1 protein level (% of DMSO control) at 1 µM [7] was 20.8%.

In the case of `Cc1ccc(NC(=O)NCc2ccc3c(c2)C(=O)N([C@H]2CCCC(=O)NC2=O)C3=O)cc1Cl` [Compound 27, (S)-1-(3-chloro-4-methylphenyl)-3-((2-(2,7-dioxoazepan-3-yl)-1,3-dioxoisoindolin-5-yl)methyl)urea], the inhibition at 0.1 µM [1] is reported as 9%, the inhibition at 0.1 µM [2] is reported as 0% and the inhibition at 0.1 µM [3] is reported as 19%. It also gave a fold induction at 0.1 µM [4] of 1.1, a viability at 10 µM [5] of 89% and a viability at 1 µM [6] of 101%. The viability at 10 µM [6] was 28.2%, the GSPT1 protein level (% of DMSO control) at 0.1 µM [7] was 51.4% and the GSPT1 protein level (% of DMSO control) at 1 µM [7] was 23.8%.
